What was measured:
CLas [1] = format: in vivo, Candidatus Liberibacter asiaticus in citrus plants; details: after twenty-eight days; soil drench, 10 Brix; p<0.05
CLas [2] = format: in vivo, Candidatus Liberibacter asiaticus in citrus plants; details: forty-eight hours after treatment; soil drench
L. crescens = format: cell-based, Liberibacter crescens; details: control, at each tested level

| SMILES | number of copies of CLas genes, change from the initial value (CLas [1]) | change in PMA titer (positive = reduction in live bacteria) (CLas [2]) | inhibition (L. crescens) |
| --- | --- | --- | --- |
| [H]/N=C(/N)N[C@H]1[C@H](O)[C@@H](O)[C@H](O[C@@H]2O[C@@H](C)[C@](O)(C=O)[C@H]2O[C@@H]2O[C@@H](CO)[C@H](O)[C@@H](O)[C@@H]2NC)[C@@H](N/C(N)=N\[H])[C@@H]1O [Streptomycin] | significant reduction | positive values |  |
| CN(C)[C@@H]1C(=O)C(C(N)=O)=C(O)[C@@]2(O)C(=O)C3=C(O)c4c(O)cccc4[C@@](C)(O)[C@H]3[C@H](O)[C@@H]12 [Oxytetracyclin] |  |  | 100% |
